Some test systems named below: OVCAR-8 ovarian; CAKI-1 renal; HCC-2998 colon; LOX IMVI melanoma; SR leukemia; RXF 393 renal; COLO 205 colon; EKVX NSCLC; CCRF-CEM leukemia; UACC-257 melanoma.
What all share (assay): NCI anticancer screen, dose series, 48 h

Where “and” joins values, the source holds several entries; their conditions need not be identical. Identical values can stand only once.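 These data come from cells grown in 96-well plates and exposed to compound for 48 hours at five concentrations. Abbreviation: GI50, concentration required for 50% inhibition of growth. At the TGI there is no net growth.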 Where only a bound is given, the exact number is not on record here.

For `COc1ccc(Cn2c3c(cc(OS(=O)(=O)C(F)(F)F)c2=O)Cc2ccccc2-3)cc1`, the GI50 in the assay with OVCAR-8 ovarian was 9.07 µM; with CAKI-1 renal, 53 µM; with LOX IMVI melanoma, 6.82 µM; in the assay with COLO 205 colon it was 61.1 µM; in the assay with EKVX NSCLC, 3.36 µM; with CCRF-CEM leukemia, 3.95 µM. Besides, the GI50 with UACC-257 melanoma was 5.14 µM. In addition, the TGI with OVCAR-8 ovarian is 50 µM and > 100 µM; in the assay with CAKI-1 renal it was 50 µM and > 100 µM; in the assay on HCC-2998 colon it was 50 µM; with LOX IMVI melanoma it was 50 µM and > 100 µM; with SR leukemia, 50 µM and 20.1 µM; with RXF 393 renal it was 50 µM and > 100 µM. The TGI in the assay on COLO 205 colon was 50 µM and > 100 µM; in the assay with EKVX NSCLC, 50 µM and > 100 µM; with CCRF-CEM leukemia, 50 µM and > 100 µM; in the assay with UACC-257 melanoma, 50 µM and > 100 µM.
Turning to `CCN(CC)C(=S)Oc1cc2oc(=O)cc(C)c2cc1Cl`, the TGI in the assay on OVCAR-8 ovarian, with CAKI-1 renal, with HCC-2998 colon, with LOX IMVI melanoma, with SR leukemia and with RXF 393 renal was over 100 µM throughout. The TGI in the assay on COLO 205 colon, in the assay on EKVX NSCLC, with CCRF-CEM leukemia and in the assay on UACC-257 melanoma was over 100 µM throughout.
Regarding `Nc1ccc(C(=O)CC(N)C(=O)O)cc1O` (configuration not stated), the TGI in the assay with OVCAR-8 ovarian, with CAKI-1 renal, with HCC-2998 colon, with LOX IMVI melanoma, in the assay with SR leukemia and with RXF 393 renal was over 100 µM throughout. Also, the TGI in the assay with COLO 205 colon, in the assay on EKVX NSCLC, in the assay with CCRF-CEM leukemia and in the assay on UACC-257 melanoma was over 100 µM throughout.
For `COc1cc(-c2cn(-c3ccc(Cl)c(Cl)c3)c(=O)n2C(C)=O)cc(OC)c1OC`, the GI50 with OVCAR-8 ovarian is 8.49 µM; in the assay with CAKI-1 renal it was 11.5 µM; in the assay on HCC-2998 colon it was 14.9 µM; with LOX IMVI melanoma it was 13.7 µM; with SR leukemia it was 14.8 µM; in the assay with RXF 393 renal, 3.34 µM. Further, the GI50 with COLO 205 colon was 7.9 µM; in the assay on EKVX NSCLC, 2.6 µM; with CCRF-CEM leukemia, 16.1 µM; in the assay on UACC-257 melanoma, 7.51 µM. The TGI was determined as 31.9 µM in the assay on OVCAR-8 ovarian; 33.5 µM with CAKI-1 renal; 29.8 µM with HCC-2998 colon; 28 µM in the assay on LOX IMVI melanoma; 34.5 µM with SR leukemia; 14.9 µM with RXF 393 renal. Moreover, the TGI in the assay on COLO 205 colon was 21.7 µM; with EKVX NSCLC it was 8.26 µM; in the assay with CCRF-CEM leukemia, 59.9 µM; in the assay with UACC-257 melanoma, 23.2 µM.
In the case of `COc1ccc(Cn2cc3c(c2)-c2oncc2CC3)cc1`, the GI50 was 9.34 µM in the assay on OVCAR-8 ovarian; 6.24 µM in the assay with CAKI-1 renal; 5.98 µM with HCC-2998 colon; 6.99 µM with LOX IMVI melanoma; 1.41 µM in the assay with SR leukemia; 5.25 µM with RXF 393 renal. The GI50 was 3.59 µM with COLO 205 colon, 12.7 µM with EKVX NSCLC, 2.87 µM with CCRF-CEM leukemia and 12.3 µM in the assay with UACC-257 melanoma. Moreover, the TGI was over 100 µM in the assay on OVCAR-8 ovarian; over 100 µM with CAKI-1 renal; 27.5 µM in the assay on HCC-2998 colon; over 100 µM in the assay with LOX IMVI melanoma; 5.38 µM in the assay with SR leukemia; 28.1 µM in the assay on RXF 393 renal. In addition, the TGI in the assay on COLO 205 colon was 14.5 µM; in the assay with EKVX NSCLC, over 100 µM; in the assay on CCRF-CEM leukemia, over 88.6 µM; in the assay with UACC-257 melanoma it was over 85.1 µM.
On to `NCCCCNc1ccc2c(=O)[nH][nH]c(=O)c2c1`, for which the TGI in the assay on OVCAR-8 ovarian, in the assay on CAKI-1 renal, in the assay with HCC-2998 colon, with LOX IMVI melanoma, in the assay on SR leukemia and with RXF 393 renal was over 100 µM each time. Also, the TGI with COLO 205 colon, in the assay with EKVX NSCLC, in the assay on CCRF-CEM leukemia and in the assay on UACC-257 melanoma was over 100 µM throughout.
As to `O=C1NC(=S)S/C1=C(/C=C(\CC(=O)c1ccccc1)c1ccc(Cl)cc1)c1ccccc1`, the GI50 with OVCAR-8 ovarian is 26.5 µM; with CAKI-1 renal, 33.7 µM; in the assay on HCC-2998 colon, 18.2 µM; in the assay with LOX IMVI melanoma, 37.6 µM; with SR leukemia, 27 µM; with RXF 393 renal it was 23.4 µM. Also, the GI50 was 32.5 µM with COLO 205 colon, 33.6 µM in the assay with EKVX NSCLC, 24.7 µM with CCRF-CEM leukemia and 21.9 µM with UACC-257 melanoma. For the same compound, the TGI with OVCAR-8 ovarian was over 100 µM; with CAKI-1 renal, over 100 µM; with HCC-2998 colon, 47.4 µM; with LOX IMVI melanoma it was over 100 µM; with SR leukemia, 63.3 µM; in the assay with RXF 393 renal, 82.1 µM. Moreover, the TGI in the assay with COLO 205 colon was over 100 µM; with EKVX NSCLC, over 100 µM; with CCRF-CEM leukemia, 73.7 µM; with UACC-257 melanoma, 61.8 µM.
For the compound `CS(=O)(=O)CSCSSCS(C)(=O)=O`, the TGI was over 100 µM in the assay on OVCAR-8 ovarian; over 57.2 µM in the assay with CAKI-1 renal; over 100 µM with HCC-2998 colon; 71.2 µM with LOX IMVI melanoma; over 91.8 µM in the assay on SR leukemia; 36.1 µM with RXF 393 renal. For the same compound, the TGI was 38 µM in the assay on COLO 205 colon, over 100 µM in the assay with EKVX NSCLC, 70.5 µM in the assay on CCRF-CEM leukemia and over 100 µM in the assay with UACC-257 melanoma.
Take `CCn1c(-c2nonc2N)nc2c(C#CC(C)(C)O)nc(OCCNC)cc21`: the GI50 with OVCAR-8 ovarian is 7.81 µM; in the assay on CAKI-1 renal it was over 18.2 µM; in the assay on HCC-2998 colon it was 5.34 µM; in the assay with LOX IMVI melanoma, 6.88 µM; in the assay with SR leukemia it was 9.56 µM; in the assay on RXF 393 renal it was 4.13 µM. The GI50 was 4.84 µM in the assay with COLO 205 colon, over 18.3 µM in the assay on EKVX NSCLC, 7.25 µM in the assay with CCRF-CEM leukemia and 7.96 µM in the assay on UACC-257 melanoma. The TGI is over 25 µM in the assay on OVCAR-8 ovarian; over 25 µM with CAKI-1 renal; over 25 µM in the assay on HCC-2998 colon; over 25 µM in the assay on LOX IMVI melanoma; over 21.8 µM in the assay with SR leukemia; 11 µM in the assay with RXF 393 renal. Moreover, the TGI in the assay with COLO 205 colon is 10.3 µM; with EKVX NSCLC, over 25 µM; in the assay with CCRF-CEM leukemia it was over 25 µM; in the assay with UACC-257 melanoma it was 24.7 µM.

Values taken from PubChem BioAssay (NCI).
